Molecular target: T1, CFTR del Ex23 (Homo sapiens, UniProt P13569, DEL1240-1291)
T1 construct: expressed in transfected cells; host or cells: HEK 293 cells, transient transfection with Lipofectamine 2000
Assay: FLIPR membrane potential assay of CFTR function in HEK 293 cells transiently transfected with CFTR del Ex23
Format: cell-based
Conditions: forskolin 10 μM, addition of potentiator VX-770 (1 μM), FIG. 1B
Experimental: HEK cells were transiently transfected with a construct bearing a CFTR transcript having exon 23 completely deleted from it (CFTR del Ex23). Transfection was carried out using Lipofectamine 2000 transfection reagent (Invitrogen) according to the lipofectamine 2000 reagent protocol using the following lipofectamine amounts: 96 well—0.15 μl, 6 well—3 μl, […]—15 μl.
HEK cells transfected with the CFTR del Ex23 contruct were grown in 96-well (black, flat bottom; corning) plates. 48 hr post-transfection, CFTR channel function was analyzed using the FLIPR membrane potential assay as previously described (Molinski et al., 2015). Briefly, the cells were loaded with blue membrane potential dye (Molecular Devices), which can detect changes in transmembrane potential. The plate was then read in a fluorescence plate reader (BioTek Synergy H1) for baseline levels followed by CFTR stimulation using the cAMP agonist forskolin (10 μM; Sigma), DMSO vehicle was used as a negative control. CFTR-mediated depolarization of the plasma membrane was detected as an increase in fluorescence and hyperpolarization (or repolarization) as a decrease. […]
FLIPR™ (Fluorescence Imaging Plate Reader) is a functional system that allows measuring changes in membrane potential by a fluorescent indicator. […]

T1 sequence (P13569 with tags, fused parts or gaps DEL1240-1291): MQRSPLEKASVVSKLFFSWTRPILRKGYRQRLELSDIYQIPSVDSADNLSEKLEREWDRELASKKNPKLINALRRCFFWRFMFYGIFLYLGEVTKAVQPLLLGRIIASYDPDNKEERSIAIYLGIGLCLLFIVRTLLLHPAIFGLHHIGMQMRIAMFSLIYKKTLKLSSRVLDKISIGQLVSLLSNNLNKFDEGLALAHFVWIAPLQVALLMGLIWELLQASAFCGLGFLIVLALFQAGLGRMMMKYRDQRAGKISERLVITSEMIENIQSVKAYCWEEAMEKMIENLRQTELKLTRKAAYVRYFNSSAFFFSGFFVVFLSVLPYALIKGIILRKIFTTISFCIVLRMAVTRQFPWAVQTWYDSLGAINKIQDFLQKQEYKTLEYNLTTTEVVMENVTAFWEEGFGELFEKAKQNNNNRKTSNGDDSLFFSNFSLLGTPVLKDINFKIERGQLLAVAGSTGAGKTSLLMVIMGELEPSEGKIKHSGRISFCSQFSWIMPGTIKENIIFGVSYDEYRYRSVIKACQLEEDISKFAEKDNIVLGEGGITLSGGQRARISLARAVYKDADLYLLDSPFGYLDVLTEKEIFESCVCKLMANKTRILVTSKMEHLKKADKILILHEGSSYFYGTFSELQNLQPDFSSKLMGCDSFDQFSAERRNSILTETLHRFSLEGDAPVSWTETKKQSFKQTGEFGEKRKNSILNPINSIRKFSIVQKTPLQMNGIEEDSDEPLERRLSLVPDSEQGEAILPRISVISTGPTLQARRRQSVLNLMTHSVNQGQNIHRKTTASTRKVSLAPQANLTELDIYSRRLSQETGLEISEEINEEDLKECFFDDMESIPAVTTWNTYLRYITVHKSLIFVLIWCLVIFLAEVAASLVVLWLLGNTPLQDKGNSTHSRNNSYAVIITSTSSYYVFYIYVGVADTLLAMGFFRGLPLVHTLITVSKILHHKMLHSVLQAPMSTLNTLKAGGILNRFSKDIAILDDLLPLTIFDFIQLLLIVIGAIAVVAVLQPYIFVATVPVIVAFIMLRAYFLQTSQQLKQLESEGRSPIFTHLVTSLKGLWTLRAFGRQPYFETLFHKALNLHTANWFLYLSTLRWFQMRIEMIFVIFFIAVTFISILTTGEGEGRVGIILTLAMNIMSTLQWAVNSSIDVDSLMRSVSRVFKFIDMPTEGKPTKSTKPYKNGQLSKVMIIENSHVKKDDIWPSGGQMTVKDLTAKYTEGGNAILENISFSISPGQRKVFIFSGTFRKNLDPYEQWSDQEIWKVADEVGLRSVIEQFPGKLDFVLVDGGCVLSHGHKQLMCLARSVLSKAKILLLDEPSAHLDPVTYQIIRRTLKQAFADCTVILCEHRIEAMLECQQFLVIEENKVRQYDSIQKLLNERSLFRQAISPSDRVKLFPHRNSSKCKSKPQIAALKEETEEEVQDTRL

For `CC(C)(C)c1cc(C(C)(C)C)c(NC(=O)c2c[nH]c3ccccc3c2=O)cc1O` [VX-770, N-(2,4-Di-tert-butyl-5-hydroxyphenyl)-4-oxo-1,4-dihydroquinoline-3-carboxamide], the channel activation was 35 % of WT.

— patent publication US20220040219A1, “COMPOSITIONS AND METHODS FOR TREATING CYSTIC FIBROSIS” (SpliSense Ltd., priority 2019, published 2022)
